Assay results taken from US20190119298A1, “FUSED 3-PHENYLTETRAMIC ACID DERIVATIVES HAVING HERBICIDAL ACTION” (Bayer CropScience Aktiengesellschaft, priority 2016, published 2019).

Columns and labels:
Format in all cases: in vivo
[1] = test system: Alopecurus myosuroides; test: Pre-emergence herbicidal effect; details: 320 g/ha, scored visually after 3 weeks vs untreated controls, 100% = plants have died
How it was run: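 Seeds sown in sandy loam and covered; WP- or EC-formulated compounds sprayed onto covering soil at 600–800 L/ha water with 0.2% wetting agent. Greenhouse-grown; damage scored visually after 3 weeks versus untreated controls (100% = plants died, 0% = like control).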

[2] = test system: Setaria viridis; test: Pre-emergence herbicidal effect; details: 320 g/ha, scored visually after 3 weeks vs untreated controls, 100% = plants have died
How it was run: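 Pre-emergence: WP or EC formulations sprayed onto the soil surface over sown seeds in sandy loam at 600–800 L/ha water with 0.2% wetting agent. Plants kept in a greenhouse; damage scored visually after 3 weeks as % activity versus untreated controls (100% = dead).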

[3] = test system: Setaria viridis; test: Post-emergence herbicidal effect; details: one-leaf stage, 320 g/ha, assessed visually after about 3 weeks, 100% = plants have died
How it was run: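 Greenhouse plants grown in sandy loam were sprayed at the one-leaf stage, 2-3 weeks after sowing. Compounds were applied as WP or EC formulations in 600-800 L/ha water plus 0.2% wetting agent. About 3 weeks later, damage was scored visually against untreated controls (0% = like control, 100% = dead plants).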

[4] = test system: Echinochloa crus-galli; test: Pre-emergence herbicidal effect; details: 320 g/ha, scored visually after 3 weeks vs untreated controls, 100% = plants have died
How it was run: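 Wettable powder or emulsion concentrate sprayed onto soil covering freshly sown seeds in sandy loam, 600 to 800 L/ha water with 0.2% wetting agent. Pots kept in greenhouse. Damage scored visually after 3 weeks against untreated controls, 0-100% activity.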

[5] = test system: Avena fatua; test: Pre-emergence herbicidal effect; details: 320 g/ha, scored visually after 3 weeks vs untreated controls, 100% = plants have died
How it was run: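 Weed and crop seeds sown in sandy loam were treated pre-emergence on the soil surface with WP or EC formulations at a water rate of 600 to 800 L/ha plus 0.2% wetting agent. Plants grown in a greenhouse; damage scored visually after 3 weeks as percent activity relative to untreated controls (100% = dead).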

[6] = test system: Lolium multiflorum; test: Pre-emergence herbicidal effect; details: 320 g/ha, scored visually after 3 weeks vs untreated controls, 100% = plants have died
How it was run: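 Seeds sown in sandy loam and covered; compounds as WP or EC applied to the soil surface pre-emergence at 600 to 800 L/ha water with 0.2% wetting agent. Greenhouse growth for 3 weeks, then damage scored visually versus untreated controls (100% = plants dead, 0% = like control).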

[7] = test system: Lolium multiflorum; test: Post-emergence herbicidal effect; details: one-leaf stage, 320 g/ha, assessed visually after about 3 weeks, 100% = plants have died
Experimental: (§1) LOLMU: Lolium multiflorum Seeds of monocotyledonous and dicotyledonous weed and crop plants are laid out in sandy loam soil in wood-fibre pots, covered with soil and cultivated in a greenhouse under good growth conditions. 2 to 3 weeks after sowing, the test plants are treated at the one-leaf stage. The compounds of the invention, formulated in the form of wettable powders (WP) or as emulsion concentrates (EC), are then sprayed onto the green parts of the plants as aqueous suspension or emulsion at a water application rate equating to 600 to 800 L/ha with addition of 0.2% wetting agent. After the test plants have been left to stand in the greenhouse under optimal growth conditions for about 3 weeks, the action of the preparations is assessed visually in comparison to untreated controls (herbicidal action in percent (%): 100% activity=the plants have died, 0% activity=like control plants).

[8] = test system: Avena fatua; test: Post-emergence herbicidal effect; details: one-leaf stage, 320 g/ha, assessed visually after about 3 weeks, 100% = plants have died
How it was run: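 Greenhouse-grown plants in sandy loam treated at one-leaf stage, 2–3 weeks after sowing, by spraying WP or EC formulations as aqueous suspension/emulsion at 600–800 L/ha water with 0.2% wetting agent. After about 3 weeks, effect scored visually versus untreated controls (0% = like control, 100% = plants dead).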

[9] = test system: Alopecurus myosuroides; test: Post-emergence herbicidal effect; details: one-leaf stage, 320 g/ha, assessed visually after about 3 weeks, 100% = plants have died
Experimental: as §1, with “ALOMY: Alopecurus myosuroides” for “LOLMU: Lolium multiflorum”

[10] = test system: Echinochloa crus-galli; test: Post-emergence herbicidal effect; details: one-leaf stage, 320 g/ha, assessed visually after about 3 weeks, 100% = plants have died
How it was run: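 Greenhouse plants in sandy loam were sprayed at the one-leaf stage with WP or EC formulations at 600 to 800 L/ha water with 0.2% wetting agent. After about 3 weeks, damage was scored visually in % against untreated controls (100% = dead).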

Row | Compound | Pre-emergence action ALOMY (herbicidal activity in percent) [1] | Pre-emergence action SETVI (herbicidal activity in percent) [2] | Post-emergence effectiveness SETVI (herbicidal action in percent) [3] | Pre-emergence action ECHCG (herbicidal activity in percent) [4] | Pre-emergence action AVEFA (herbicidal activity in percent) [5] | Pre-emergence action LOLMU (herbicidal activity in percent) [6] | Post-emergence effectiveness LOLMU (herbicidal action in percent) [7] | Post-emergence effectiveness AVEFA (herbicidal action in percent) [8] | Post-emergence effectiveness ALOMY (herbicidal action in percent) [9] | Post-emergence effectiveness ECHCG (herbicidal action in percent) [10]
1 | CCc1cc(C)cc(C)c1C1=C(OC(=O)OC)C2CCOCCN2C1=O (centres unmarked) [Ib-1-6] | 100% | 100% | 100% | 100% | 100% | 100% | 100% | 100% | 100% | 100%
2 | CCOC(=O)OC1=C(c2c(C)cc(C)cc2CC)C(=O)N2CCOCCC12 (centres unmarked) [Ib-1-7] | 100% | 100% | 100% | 100% | 100% | 100% | 100% | 100% | 100% | 100%
3 | CCc1cc(C)cc(C)c1C1=C(OC(=O)C(C)(C)C)C2CCOCCN2C1=O (centres unmarked) [Ib-1-8] | 100% | 100% | 100% | 100% | 100% | 100% | 100% | 100% | 100% | 100%
4 | CCc1cc(C)cc(C)c1C1=C(OC(C)=O)C2CCOCCN2C1=O (centres unmarked) [Ib-1-9] | 100% | 100% | 100% | 100% | 100% | 100% | 100% | 100% | 100% | 100%
5 | CCOC(=O)OC1=C(c2c(C)cc(C)cc2C)C(=O)N2CCOCCC12 (centres unmarked) [Ib-1-10] | 80% | 100% | 100% | 100% | 90% | 100% | 100% | 100% | 100% | 100%
6 | Cc1cc(C)c(C2=C(OC(=O)C(C)(C)C)C3CCOCCN3C2=O)c(C)c1 (centres unmarked) [Ib-1-11] | 90% | 100% | 100% | 100% | 90% | 100% | 100% | 100% | 100% | 100%
7 | CC(=O)OC1=C(c2c(C)cc(C)cc2C)C(=O)N2CCOCCC12 (centres unmarked) [Ib-1-12] | 100% | 100% | 100% | 100% | 90% | 100% | 100% | 100% | 100% | 100%
8 | CCOC(=O)OC1=C(c2c(C)cccc2CC)C(=O)N2CCOCCC12 (centres unmarked) [Ib-1-13] | 80% | 100% | 100% | 100% | 90% | 100% | 100% | 90% | 100% | 100%
9 | CCc1cccc(C)c1C1=C(OC(=O)C(C)(C)C)C2CCOCCN2C1=O (centres unmarked) [Ib-1-14] | 80% | 100% | 100% | 100% | 90% | 100% | 100% | 100% | 90% | 100%
10 | CCc1cc(Cl)cc(OC)c1C1=C(OC(=O)OC)C2CCOCCN2C1=O (centres unmarked) [Ib-1-16] | 100% | 100% | 100% | 100% | 100% | 100% | 100% | 100% | 100% | 100%
11 | CCc1cc(Cl)cc(OC)c1C1=C(OC(=O)C(C)(C)C)C2CCOCCN2C1=O (centres unmarked) [Ib-1-18] | 100% | 100% | 100% | 100% | 100% | 100% | 100% | 100% | 100% | 100%
